We go through seven compounds from PMC6117091, “The C. difficile clnRAB operon initiates adaptations to the host environment in response to LL-37” (PLoS Pathogens, 2018).

In assay [1] the test system is clnR expression in C. difficile 630Δerm. Kind of assay: clnR expression by qRT-PCR after exposure to antimicrobials (induction specificity). As to conditions: for Relative clnR expression: BHIS, mean of three replicates ± SEM; for Induction of clnR transcription (in words): concentrations of Table 1.
The next assay relates to C. difficile 630Δerm. As to the kind of experiment: Minimum inhibitory concentration (MIC). To be noted: Mueller-Hinton Broth, 24 h, 37°C, anaerobic, ~5 x 10^5 CFU/ml. It counts as cell-based, Clostridioides difficile. As to the method:
(§1) Minimum inhibitory concentrations (MIC) were determined as previously described. […] Briefly, overnight cultures of C. difficile strains were diluted 1:50 in Mueller-Hinton Broth (Difco) and grown to OD600 of 0.45 (~5 x 10^7 CFU/ml). Cultures were then diluted 1:10 in MHB and seeded at a further 1:10 dilution in a round-bottom 96-well plate prepared with serial dilutions of antimicrobials for a starting concentration of ~5 x 10^5 CFU/ml. Plates were incubated for 24 h at 37°C in the anaerobic chamber.

Assay [2] relates to C. difficile clnAB mutant (MC935). Kind of assay: Minimum inhibitory concentration (MIC). It counts as cell-based, Clostridioides difficile. To be noted: Mueller-Hinton Broth, 24 h, 37°C, anaerobic, ~5 x 10^5 CFU/ml. Here is the method: as §1
Assay [3] relates to C. difficile clnR mutant (MC885). As to the kind of experiment: Minimum inhibitory concentration (MIC). It counts as cell-based, Clostridioides difficile. To be noted: Mueller-Hinton Broth, 24 h, 37°C, anaerobic, ~5 x 10^5 CFU/ml. As to the method: as §1
Assay [4] has as its target LL-37 (human cathelicidin) (human).
Where [5] appears, read: Clostridioides difficile, read-out: MIC.

Values after ≈ are worked out from the molar mass of the structure shown. Read-outs that look alike come from different tables or passages of the source. Where a SMILES comes first, the peptide text is derived from it. Bridges are numbered along the chain shown (N, C = ends). Where no end group is shown, it is not given here. [ ]: non-standard residue; d: D form. The star is where a group is joined. X1 = CC[C@H](C)CCCCC(=O)*; Dab = NCC[C@H](N)C(=O)O

Usually MIC stands for the least concentration at which growth counts as inhibited. A word on the Kd: it is the free concentration of one partner at which half of the binding sites on the other are occupied at equilibrium, for simple one-to-one binding.

Lysozyme: in assay [1] (1 mg/ml, normalized to 630Δerm without antimicrobials), the “Relative clnR expression” value is listed as 1.1 ± 0.3. Further, the “Induction of clnR transcription (in words)” value (“Induction” below) in assay [1] is “none of the other cell-surface-active antimicrobials tested”.

`CN[C@H](CC(C)C)C(=O)N[C@H]1C(=O)N[C@@H](CC(N)=O)C(=O)N[C@H]2C(=O)N[C@H]3C(=O)N[C@H](C(=O)N[C@H](C(=O)O)c4cc(O)cc(O)c4-c4cc3ccc4O)[C@H](O)c3ccc(c(Cl)c3)Oc3cc2cc(c3O[C@@H]2O[C@H](CO)[C@@H](O)[C@H](O)[C@H]2O[C@H]2C[C@](C)(N)[C@H](O)[C@H](C)O2)Oc2ccc(cc2Cl)[C@H]1O` [Vancomycin, vancomycin]: the MIC (with C. difficile 630Δerm (setting [5]); in assay [2] (setting [5]); in assay [3] (setting [5])) was 1 µg/mL (≈ 0.69 µM) each time. Further, in assay [1], the “Induction” value was “none of the other cell-surface-active antimicrobials tested”.

Consider `CC[C@H](C)CCCCC(=O)N[C@@H](CCN)C(=O)N[C@H](C(=O)N[C@@H](CCN)C(=O)N[C@H]1CCNC(=O)[C@H]([C@@H](C)O)NC(=O)[C@H](CCN)NC(=O)[C@H](CCN)NC(=O)[C@H](CC(C)C)NC(=O)[C@@H](Cc2ccccc2)NC(=O)[C@H](CCN)NC1=O)[C@@H](C)O` [Polymyxin B, polymyxin B] (X1-[Dab]T[Dab][Dab][Dab][dF]L[Dab][Dab]T; lactam 4-C (inferred); N-terminus assumed), for which the MIC (in the assay with C. difficile 630Δerm; in assay [2]; in assay [3]) was 500 µg/mL (≈ 415 µM) throughout. Also, in assay [1] (200 μg/ml, normalized to 630Δerm without antimicrobials), the “Relative clnR expression” value was 1.2 ± 0.2. The “Induction” value in assay [1] is “none of the other cell-surface-active antimicrobials tested”.

Compound “Recombinant N-terminally His-tagged ClnR (natural protein)” registered a Kd in assay [4] of 83 nM.

For the compound mCRAMP, in assay [1] (2 μg/ml, normalized to 630Δerm in BHIS without antimicrobials), the “Relative clnR expression” value is 111.4 ± 27.3. The “Induction” value in assay [1] is “also induced”.

For the compound `CC1(C)S[C@@H]2[C@H](NC(=O)[C@H](N)c3ccccc3)C(=O)N2[C@H]1C(=O)O` [Ampicillin, ampicillin], the MIC (in the assay on C. difficile 630Δerm (setting [5]); in assay [2] (setting [5]); in assay [3] (setting [5])) was 4 µg/mL (≈ 11.4 µM) each time. Also, the “Induction” value in assay [1] is reported as “none of the other cell-surface-active antimicrobials tested”.

Regarding “nisin (ITSISLCTPGCKTGALMGCNMKTATCHCSIHVSK; also: lantibiotic, modified residues and rings not given here; UniProt P13068 24-57, looked up)”, the MIC (in the assay on C. difficile 630Δerm; in assay [2]; in assay [3]) was 360 µg/mL throughout. Also, the “Relative clnR expression” value in assay [1] (7.5 μg/ml, normalized to 630Δerm without antimicrobials) is 1.1 ± 0.4. Further, the “Induction” value in assay [1] is “none of the other cell-surface-active antimicrobials tested”.
